Experimental data: ChEMBL document CHEMBL3044734, “Major secondary metabolites produced by two commercial Trichoderma strains active against different phytopathogens” (2006)

Legend:
Format in all cases: functional
Gaeumannomyces tritici [1] = assay: Antimicrobial activity against Gaeumannomyces graminis var. tritici assessed as colony diameter at 10 ug/plug after 3 days ( Rvb = 1.40+/- 0.8 cm)
Gaeumannomyces tritici [2] = assay: Antimicrobial activity against Gaeumannomyces graminis var. tritici assessed as colony diameter at 0.1 ug/plug after 3 days ( Rvb = 1.40+/- 0.8 cm)
Gaeumannomyces tritici [3] = assay: Antimicrobial activity against Gaeumannomyces graminis var. tritici assessed as colony diameter at 100 ug/plug after 3 days ( Rvb = 1.40+/- 0.8 cm)
Rhizoctonia solani [4] = assay: Antimicrobial activity against Rhizoctonia solani assessed as colony diameter at 100 ug/plug after 3 days ( Rvb = 2.95 +/- 0.11 cm)
Globisporangium ultimum [5] = assay: Antimicrobial activity against Pythium ultimum assessed as colony diameter at 0.01 ug/plug after 3 days ( Rvb = 8.50 cm)
Rhizoctonia solani [6] = assay: Antimicrobial activity against Rhizoctonia solani assessed as colony diameter at 0.01 ug/plug after 3 days ( Rvb = 2.95 +/- 0.11 cm)
Rhizoctonia solani [7] = assay: Antimicrobial activity against Rhizoctonia solani assessed as colony diameter at 1 ug/plug after 3 days ( Rvb = 2.95 +/- 0.11 cm)
Globisporangium ultimum [8] = assay: Antimicrobial activity against Pythium ultimum assessed as colony diameter at 0.1 ug/plug after 3 days ( Rvb = 8.50 cm)
Gaeumannomyces tritici [9] = assay: Antimicrobial activity against Gaeumannomyces graminis var. tritici assessed as colony diameter at 0.01 ug/plug after 3 days ( Rvb = 1.40+/- 0.8 cm)
Globisporangium ultimum [10] = assay: Antimicrobial activity against Pythium ultimum assessed as colony diameter at 200 ug/plug after 3 days ( Rvb = 8.50 cm)
Globisporangium ultimum [11] = assay: Antimicrobial activity against Pythium ultimum assessed as colony diameter at 1 ug/plug after 3 days ( Rvb = 8.50 cm)
Globisporangium ultimum [12] = assay: Antimicrobial activity against Pythium ultimum assessed as colony diameter at 10 ug/plug after 3 days ( Rvb = 8.50 cm)
Rhizoctonia solani [13] = assay: Antimicrobial activity against Rhizoctonia solani assessed as colony diameter at 200 ug/plug after 3 days ( Rvb = 2.95 +/- 0.11 cm)
Gaeumannomyces tritici [14] = assay: Antimicrobial activity against Gaeumannomyces graminis var. tritici assessed as colony diameter at 1 ug/plug after 3 days ( Rvb = 1.40+/- 0.8 cm)
Rhizoctonia solani [15] = assay: Antimicrobial activity against Rhizoctonia solani assessed as colony diameter at 0.1 ug/plug after 3 days ( Rvb = 2.95 +/- 0.11 cm)
Gaeumannomyces tritici [16] = assay: Antimicrobial activity against Gaeumannomyces graminis var. tritici assessed as colony diameter at 200 ug/plug after 3 days ( Rvb = 1.40+/- 0.8 cm)
Globisporangium ultimum [17] = assay: Antimicrobial activity against Pythium ultimum assessed as colony diameter at 100 ug/plug after 3 days ( Rvb = 8.50 cm)
Rhizoctonia solani [18] = assay: Antimicrobial activity against Rhizoctonia solani assessed as colony diameter at 10 ug/plug after 3 days ( Rvb = 2.95 +/- 0.11 cm)

| Compound | Activity (Gaeumannomyces tritici [1]) [cm] | Activity (Gaeumannomyces tritici [2]) [cm] | Activity (Gaeumannomyces tritici [3]) [cm] | Activity (Rhizoctonia solani [4]) [cm] | Activity (Globisporangium ultimum [5]) [cm] | Activity (Rhizoctonia solani [6]) [cm] | Activity (Rhizoctonia solani [7]) [cm] | Activity (Globisporangium ultimum [8]) [cm] | Activity (Gaeumannomyces tritici [9]) [cm] | Activity (Globisporangium ultimum [10]) [cm] | Activity (Globisporangium ultimum [11]) [cm] | Activity (Globisporangium ultimum [12]) [cm] | Activity (Rhizoctonia solani [13]) [cm] | Activity (Gaeumannomyces tritici [14]) [cm] | Activity (Rhizoctonia solani [15]) [cm] | Activity (Gaeumannomyces tritici [16]) [cm] | Activity (Globisporangium ultimum [17]) [cm] | Activity (Rhizoctonia solani [18]) [cm] |
| --- | --- | --- | --- | --- | --- | --- | --- | --- | --- | --- | --- | --- | --- | --- | --- | --- | --- | --- |
| C/C=C/C=C/CC1=C(CC(C)O)C(=O)OC1 (stereo unspecified) [HARZIANOLIDE] | 1.1 | 1.25 | 1.25 | 2.7 | 8.5 | 2.8 | 2.5 | 8.5 | 1.05 | 7.6 | 8.5 | 8.5 | 2.35 | 1.43 | 2.83 | 0.7 | 8.5 | 3.05 |
| C/C=C/CC(C)C(=O)c1c(O)c(OC)c(OC)[nH]c1=O (stereo unspecified) [HARZIANOPYRIDONE] | 0 | 0.7 | 0 | 0 | 8.5 | 2.73 | 1.2 | 8.5 | 0.98 | – | 8.5 | 8.5 | – | 0 | 2.53 | – | 7.9 | 0 |
| C/C=C/C=C/C1=CC2=CC(=O)[C@](C)(OC(=O)[C@H](C)O)C(=O)C2=CO1 [T22AZAPHILONE] | 0 | 1.13 | 0 | 0 | 8.5 | 2.9 | 1.9 | 8.5 | 1.18 | – | 8.3 | 5.2 | – | 0 | 2.83 | – | 0 | 0 |
| C/C=C/C=C/CC1=C(CC(C)=O)C(=O)OC1 [T39BUTENOLIDE] | 1.23 | 1.13 | 0 | 0 | 8.5 | 2.73 | 2.4 | 8.5 | 1.2 | 6.35 | 8.5 | 8.5 | 0 | 1.1 | 2.5 | 0 | 8.05 | 2.13 |
